{"source": "patent US20110177161A1", "about": "“PHARMACEUTICAL COMPOSITIONS OF [5(S)-(2'-HYDROXYETHOXY)-20(S)-CAMPTOTHECIN” (DR. REDDY'S LABORATORIES LIMITED, priority 2007, published 2011)", "key": {"[1]": {"target": "T1, Topoisomerase I (Homo sapiens, UniProt P11387)", "T1 construct": "purchased Topogen, Inc., Port Orange, Fla", "T1 sequence (P11387 1-765)": "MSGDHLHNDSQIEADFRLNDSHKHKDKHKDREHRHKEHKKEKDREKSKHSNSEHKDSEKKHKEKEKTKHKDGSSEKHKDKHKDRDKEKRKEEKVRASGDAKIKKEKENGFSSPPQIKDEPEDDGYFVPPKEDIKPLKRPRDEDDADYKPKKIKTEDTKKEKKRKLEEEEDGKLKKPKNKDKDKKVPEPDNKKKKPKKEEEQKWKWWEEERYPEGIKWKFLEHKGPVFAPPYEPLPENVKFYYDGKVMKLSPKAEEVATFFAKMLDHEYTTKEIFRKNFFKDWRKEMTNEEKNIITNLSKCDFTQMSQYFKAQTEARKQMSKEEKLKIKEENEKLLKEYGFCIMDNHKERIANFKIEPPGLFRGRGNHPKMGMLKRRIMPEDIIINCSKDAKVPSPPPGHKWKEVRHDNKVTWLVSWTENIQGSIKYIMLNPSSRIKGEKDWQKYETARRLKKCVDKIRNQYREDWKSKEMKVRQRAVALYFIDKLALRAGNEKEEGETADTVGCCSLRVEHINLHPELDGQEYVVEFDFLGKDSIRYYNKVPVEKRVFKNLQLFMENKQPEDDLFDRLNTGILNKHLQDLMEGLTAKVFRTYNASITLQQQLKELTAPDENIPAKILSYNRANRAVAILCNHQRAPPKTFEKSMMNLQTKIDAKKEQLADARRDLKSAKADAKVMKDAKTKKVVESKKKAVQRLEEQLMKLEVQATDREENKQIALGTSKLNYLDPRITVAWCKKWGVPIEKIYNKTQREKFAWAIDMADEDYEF", "assay": "Topoisomerase assay (TopoGEN Topo I Drug Screening Kit)", "format": "biochemical", "source_text": "Topoisomerase I introduces transient nicks in DNA at specific sites. Detection of these transient DNA nicks requires trapping the enzyme on DNA in a nicked intermediate complex using protein denaturants. The resulting covalent DNA/top I complexes contain nicked open circular DNA which can be detected by agarose gel electrophoresis (with ethidium bromide). Trapping nicked intermediates is relatively inefficient, however, inhibitors, such as the natural product camptothecin, stabilize the intermediate and lead to an increase in the nicked DNA product. This forms the basis for a mechanistic drug screen designed to allow detection of agents that affect topoisomerase I by stabilizing the cleaved intermediate complex.\nThe TopoGEN Topo I Drug Screening Kit (Topogen, Inc., Port Orange, Fla.) is designed to allow the investigator to quickly identify novel inhibitors of topoisomerase I. The kit allows the detection of novel compounds that either stabilize the nicked intermediate or otherwise inhibit catalytic activity of topoisomerase I.\nThe above reaction mixture is incubated at 37 degree C. for 30 minutes. The reaction is terminated by adding 2 μl of 10% SDS and the mixture is vortexed rapidly (SDS should be added while at 37 degree C. as cooling the tubes might reseal the nicked DNA). 10× Dye, about 2.5 μl per tube, is added and equal volumes of a mixture of chloroform and isoamyl alcohol (24:1) is added and centrifuged at 13000 rpm for 10 minutes. Samples are loaded on a 1% agarose gel and electrophoresed for 1 hour at 80 volts. The gel was viewed on UV transilluminator and the densitometric estimation of the bands was calculated.\nThe density of the DNA bands of both super coiled and relaxed forms of DNA was measured using the densitometer. The band intensity of treated (with single concentration of the test drug) and without the drug (i.e., the Control) were recorded. The percentage of relaxed form DNA compared to the supercoiled DNA was calculated for all the lanes including treated and control. • % inhibition of Topoisomerase activity was calculated as: […]"}, "[2]": {"tested_on": "NCl-H460 (human small cell lung carcinoma) xenografts", "assay": "NCl-H460 xenograft study in nude mice", "settings": "oral, (d×5)2 schedule", "method": "To perform the NCl-H460 xenograft study, NCl-H460 tumor pieces measuring ~60 mm^3 were implanted in the space of dorsal lateral flanks of female athymic nude mice to initiate tumor growth. When the tumors were grown to ~150-1000 mm^3, animals were randomized into groups of five prior to initiating therapy. […] Each gram of placebo was formulated to contain 895.2 mg hydroxylpropyl beta cyclodextran, 89.52 mg dextrose anhydrous and 14.9 mg sodium carbonate. Each formulation was dissolved in 2 ml sterile water and administered through oral route in a (d×5)2 schedule. Tumor diameters were measured twice a week using a vernier caliper.\nTumor volumes were calculated assuming tumors to be ellipsoid using the formula: V=(D×d^2)/2, where V (mm^3) is tumor volume, D is longest diameter in mm and d is shortest diameter in mm. Change in tumor volumes (Δ) for each treated (T) and control (C) group were calculated by subtracting the mean tumor volume on the first day of treatment (starting day) from the mean tumor volume on the specified observation day. These values were used to calculate a percentage growth (% T/C) using the formulas:\nPercentage tumor growth inhibition (% TGI) was then calculated using the formula: % TGI=100−% TC.\nAll of the mice bearing subcutaneous tumors measuring approximately 150-800 mm^3 were treated with test compound through oral gavage using a (d×5)2 schedule. Tumor diameters were measured twice in a week using vernier calipers and tumor volumes were calculated assuming tumors to be ellipsoid using the formula V=(D×d^2)/2 where V (mm^3) is tumor volume, D is longest diameter in mm., and d is shortest diameter in mm. Changes in tumor Volumes (Δ volumes) for each treated (T) and control (C) group are calculated, by subtracting the mean tumor volume on the first day of treatment (starting day) from the mean tumor volume of on the specified observation day. These values are used to calculate a percentage growth (% T/C) using the formula: […]\nTumor regressions are defined as partial if the tumor volume decreases to 50% or less of the tumor volume at the start of the treatment without dropping below to 63 mm^3. Complete regression is defined if the tumor volume drops to below measurable limits (<63 mm^3).\nThe percentage body weight change in comparison to starting day body weight of each animal was calculated using the formula: Percentage Body weight change=[(Body weight on specified observation day-Body weight on starting day)/Body weight on starting day]×100.\nThe other parameter observed was mortality."}}}
{"smiles": "CC[C@@]1(O)C(=O)OCc2c1cc1n(c2=O)C(OCCO)c2cc3ccccc3nc2-1", "note": "(mixture of isomers) [5(RS)-(2′-hydroxyethoxy)-20(S)-camptothecin, reference compound]", "values": [{"measurement": "IC50", "setting": "[1]", "result": 12.5, "unit": "µM"}, {"measurement": "% Tumor Growth Inhibition", "setting": "[2]; Dose 2 mg/kg", "result": 60, "unit": "%"}, {"measurement": "Mortality", "setting": "[2]; Dose 2 mg/kg", "result": "0/5"}, {"measurement": "% Tumor Growth Inhibition", "setting": "[2]; Dose 4 mg/kg", "result": 64, "unit": "%"}, {"measurement": "Mortality", "setting": "[2]; Dose 4 mg/kg", "result": "0/5"}]}
{"smiles": "CC[C@@]1(O)C(=O)OCc2c1cc1n(c2=O)[C@@H](OCCO)c2cc3ccccc3nc2-1", "note": "[DRF-(5S,20S)-1042, 5(S)-(2′-hydroxyethoxy)-20(S)-camptothecin]", "values": [{"measurement": "fold more active than 5(R)-(2′-hydroxyethoxy)-20(S)-camptothecin in inhibiting topoisomerase I", "setting": "[1]", "result": "about 21 fold"}, {"measurement": "times more active than 5(RS)-(2′-hydroxyethoxy)-20(S)-camptothecin in inhibiting topoisomerase I", "setting": "[1]", "result": "about 12 times"}, {"measurement": "% Tumor Growth Inhibition", "setting": "[2]; Dose 2 mg/kg", "result": 68, "unit": "%"}, {"measurement": "Mortality", "setting": "[2]; Dose 2 mg/kg", "result": "0/5"}, {"measurement": "% Tumor Growth Inhibition", "setting": "[2]; Dose 4 mg/kg", "result": 76, "unit": "%"}, {"measurement": "Mortality", "setting": "[2]; Dose 4 mg/kg", "result": "0/5"}]}
